“Also recorded” adds a separate entry of the source.
Legend:
[1] = tested on: HBV; test: Example 3: second patient, antiviral therapy of HBV infection (HBV DNA, ALT, AST); format: in vivo, human; details: lamivudine (Zeffix) 100 mg/day; before breakthrough
Source text: A person is a patient with HBsAg (+) and Anti-HBe (+).

[2] = tested on: wild type HBV; test: HBV replication in transiently transfected Huh7 cell lines (Real-time PCR), wild type HBV; details: supernatant at end of 5th day
[3] = tested on: HBV; details: human, in vivo; cited from earlier work
[4] = tested on: HBV; test: Published clinical studies of ADF (Perrillo 2004, Peters 2004, Angus 2003, Yang 2003); details: ADF added to the therapy; implied from cited studies
[5] = tested on: HBV; test: Case study patient: antiviral therapy of chronic HBV infection (HBV DNA, ALT); format: in vivo, human; details: patient after clinical breakthrough, IFN 9 MU/TIW 6 months, Hepsera 10 mg/day 14 months
Protocol: HBV DNA levels were measured by using a commercial liquid-hybridization assay (Digene, Maryland, US), with the lower limit of detection of this assay being 5 pg/mL of viral DNA.
Lamuvidine was continued after the development of clinical breakthrough. […] Hepsera™ (Adefovir dipovoxil) 10 mg/day was added to lamivudine monotherapy at 44th month of initial antiviral therapy and 3 months after stopping IFN.
Blood counts and liver-function tests (alanine and aspartate aminotransferases) were done according to routine biochemical procedures (Olympus AU 2700 autoanalyzer, Japan).

[6] = 0.1 μM antiviral, 3 independent experiments
[7] = 1 μM antiviral, 3 independent experiments

For Nc1ccn([C@@H]2CS[C@H](CO)O2)c(=O)n1 [3TC, β-L-(−)-2′,3′-dideoxy-3′-thiacytidine], the “HBV DNA levels following lamivudine treatment” value [1] was “less than 5 pg/mL”, the “HBV replication in transiently transfected Huh7 cell lines (Mean log HBV copy number ± standard deviation)” value [2, 6] was 4.1 ± 0.8 log HBV copy number and the “HBV replication in transiently transfected Huh7 cell lines (Mean log HBV copy number ± standard deviation)” value [2, 7] was 2.32 ± 1.62 log HBV copy number.
In the case of Nc1ncnc2c1ncn2CCOCP(=O)(O)O [Adefovir, 9-(2-phosphonyl-methoxyethyl)-adenine], the “Adefovir treated patients revealing the resistance mutation rtN236T” value [3] is listed as 1.7-2.5%, the “Patients not achieving a significant reduction in HBV DNA levels” value [4] is listed as 8-15% and the “HBV replication in transiently transfected Huh7 cell lines (Mean log HBV copy number ± standard deviation)” value [2, 6] is listed as 1.15 ± 1.62 log HBV copy number. The “HBV replication in transiently transfected Huh7 cell lines (Mean log HBV copy number ± standard deviation)” value [2, 7] was 0.32 ± 0.58 log HBV copy number and the “HBV replication in transiently transfected Huh7 cell lines (Mean log HBV copy number ± standard deviation)” value ([2]; 10 μM antiviral, n.d. = not detectable) was “no detectable HBV DNA”.
With CC(C)(C)C(=O)OCOP(=O)(COCCn1cnc2c(N)ncnc21)OCOC(=O)C(C)(C)C [adefovir dipivoxil] the “ALT and HBV replication response when added to ongoing lamivudine (in words)” value [5] was “neither suppressed HBV replication nor decreased serum ALT levels” and the “ALT and HBV replication response when added to ongoing lamivudine (in words)” value ([5]; listed as Hepsera™) was “neither inhibition of HBV replication nor ALT normalization occurred; also recorded: did not lead to inhibition of HBV replication and ALT normalisation”.

Source: patent US7422848B2, “Hepatitis-B viral variants with reduced susceptibility to nucleoside analogs and uses thereof” (priority 2005, dated 2008)
